The values that follow come from paper PMC10076467 (EJNMMI Research, 2023).

Where “and” joins values, the source holds several entries; their conditions need not be identical. Equal values may be shown once.

For one series, the target named is T1, GluN2B (Homo sapiens, UniProt Q05586+Q13224).
T1 construct: expressed in transfected cells; host or cells: transiently transfected mouse fibroblast cells (membrane homogenate)
As to conditions: cited from earlier work.

For series [1], the system named is numerous binding sites and receptors. The series can be described thus: PDSP pharmacological screen, other receptors and binding sites. As to conditions: 10 μM; not greater than 10% for sites other than calcium channel, hERG, σ1, σ2. The text has this:
(§1) NR2B-Me was submitted to the PDSP for assessment of binding affinity against a wide range of other receptors and binding sites. A full listing of these receptors and binding sites is given in the Supplemental Results. Detailed assay protocols are available at the PDSP website (http://pdsp.cwru.edu).
(§2) Assessment of Binding Affinity against a Wide Range of Other Receptors and Binding Sites. […]
A general note: hERG is a cardiac potassium channel; its block is linked to QT prolongation.

Series [2] in a line: LogD7.4 measurement (1-octanol / sodium phosphate buffer). Format: physicochemical.
Description: The radiochemical purity of the radioligand was measured via HPLC. […] Aliquots (1 mL) were distributed to each of eight borosilicate disposable culture tubes (13 × 100 mm). Six tubes were extracted with buffer pre-treated 1-octanol (1 mL) by vortexing for one minute and then centrifuged for one minute. The organic and aqueous phases were separated. Samples of organic phase (50 µL) and aqueous phase (50 µL) were taken and separately measured for radioactivity. The remaining two tubes containing radioactivity in buffer were analyzed with HPLC to check for any decrease in radiochemical purity over the time-span of the experiment. […] LogD was calculated as log[(cpm/mL for 1-octanol phase)/(cpm/mL for aqueous phase)] using Pallas for Windows software (CompuDrug Inc.).
Series [3] can be described thus: pKa measurement (cyclohexane / sodium phosphate buffers). As to conditions: distribution between cyclohexane and sodium phosphate buffers. Format: physicochemical.
Another series has as its target T2, PC12 cell σ2 receptors (Rattus norvegicus, UniProt Q5U3Y7).
T2 construct: endogenous in cells; host or cells: PC12 cells
T2 sequence (Q5U3Y7 1-176): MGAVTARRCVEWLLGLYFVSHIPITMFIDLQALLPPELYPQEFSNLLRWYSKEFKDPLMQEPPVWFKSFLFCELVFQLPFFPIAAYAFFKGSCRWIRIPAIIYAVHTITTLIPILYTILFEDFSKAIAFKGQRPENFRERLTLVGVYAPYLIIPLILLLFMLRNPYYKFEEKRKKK
Put plainly: PDSP σ2 receptor binding. As to conditions: at 10 µM (Table 1 footnote: 10 µmol), PC12 cell σ2.
Source text: as §1
(§3) Assessment of Binding Affinity against a Wide Range of Other Receptors and Binding Sites. NR2B-Me was submitted to the National Institute of Mental Health Psychoactive Drug Screening program (NIMH-PDSP) to assess binding affinity against a wide range of other receptors and binding sites (5-HT1A, 1B, 1D, 1E, 2A, 2A agonist, 2A antagonist, 2B, 2B agonist, 2B antagonist, 2C, 2C agonist, 2C antagonist, 3, 5A, 6, 7; α2; α2β2, α2β2, α3β2, α3β4, α4β2, α4β4, α7; α1A, 1A agonist, 1B, 1B agonist, 1B antagonist, 2A-2C; AMPA*; β1-3; BZPa1-3, a5, a6, rat brain site; Ca^2+-Channel; CB1-2, D1, 2, 2 agonist, 2 antagonist, 3-5; DAT; DOR; EP1-4; GABAA,B; GPR40,41,43; H1-4; HERG; IMIDAZOLINE 1; KA-R*; KOR, KORagonist, antagonist; M1, 1 agonist, 1 antagonist, 2, 3, 3 agonist, 3 antagonist, 4, 5, 5 agonist, 5 antagonist; MDR 1; mGluR1A,2,4,5,5-cloned,5-rat brain,6,8; MOR; Na^+-Channel; NET; NK1, 1 antagonist, 2, 2 antagonist, 3, 3 antagonist; NMDA; NMDA/MK801; NT-1; OXYTOCINagonist, antagonist; PAR1agonist, antagonist; PCP; PKCA, B, D, E, G; PTHR2, Purinergicagonist, antagonist; SET; σ1,2; V1, 1 agonist, 1 antagonist, 2, 2 agonist, 2 antagonist, 3, 3 agonist, 3 antagonist, VMAT1, 2).

A further series has as its target hERG channel (Homo sapiens, UniProt Q12809). The series can be described thus: PDSP pharmacological screen, hERG channel. As to conditions: read-out: inhibition of reference radioligand binding, hERG channel.
Source text: as §1, §2

The test system of the next series is calcium channel. Put plainly: PDSP pharmacological screen, calcium channel. Format: binding. As to conditions: 10 μM.
Source text: as §1, §2

Another series concerns the target guinea pig σ1 receptor (Cavia porcellus, UniProt Q60492). Put plainly: PDSP σ1 receptor binding. As to conditions: 10 μM; read-out: inhibition of reference radioligand binding, guinea pig σ1 receptor.
Source text: as §1, §3

Series [4] addresses T3, GluN2B receptors (Rattus norvegicus, UniProt P35439+Q00960).
T3 construct: from tissue; host or cells: brain of living male rats (PET imaging)
Also on record: method as in PMID 31924728. As to conditions: pre-blocking, radioligand ^11C-(S)-NR2B-SMe; cited from earlier work.

The target in series [5] is T3, GluN2B receptors. The series can be described thus: ED50 for pre-blocking of GluN2B radioligand uptake in rat whole brain (PET). Format: in vivo. As to conditions: rat; read-out: ED50 in rat whole brain in vivo ^11C-(+)-NR2B-Me. Here is the method: (§4) For radioligand injection, a polyethylene catheter (PE 10) was inserted into the penile vein of a male rat and then secured with tissue adhesive and tape. […] Body temperature was monitored with a rectal probe. All PET scans were performed on a microPET Focus 220 scanner (Siemens Medical Solutions) (7,8). Data were acquired in listmode and reconstructed with Fourier rebinning + 2D filtered backprojection. A transmission scan was acquired before radioligand injection for attenuation correction. Dynamic scanning began at the time of a one-minute intravenous bolus injection of the radioligand under study (55 ± 19 MBq; volume 0.2 to 1.0 mL). The injected mass dose was 3 ± 1 nmol/kg. Challenge agents were administered intravenously 10 minutes before the radioligand for pre-blocking studies or 10 minutes after the radioligand for displacement studies. Tomographic images were analyzed with pixel-wise modeling computer software (PMOD 2.6; PMOD Group). Regions-of-interest in the brain were delineated, and time-activity curves calculated as SUV versus time.
(§5) Pre-blocking and displacement experiments were performed to assess radioligand target engagement and radioligand selectivity in vivo. […] Areas-under the curve (AUCs) from time-activity curves between 20 and 90 minutes were calculated for each radioligand. AUCs obtained from the same production of radioligand were scaled to the value (or mean value) for the baseline experiment to give relative values (relative AUC20–90 min). […] Where data permitted, the dose-response curves were fitted with GraphPad Prism software (version 8.1.1; GraphPad) to estimate the ED50 values. A dummy value of 100 pmol per kg body weight was used for zero concentration of the challenge agent in the construction of these dose-response curves. Numerical data are expressed as mean ± S.D. for n>2, or as mean and range for n = 2.

How the values of series [6] were obtained: For Brain. The brain (1.7 g) was homogenized in twice its volume of cold saline. […] An aliquot (450 µL) was then placed in acetonitrile (720 µL) along with carrier NR2B-Me (5 µg) and mixed well. Water (100 µL) was then added, mixed well, measured for radioactivity, and centrifuged at 10,000 g for one minute. The supernatant was analyzed via HPLC. The precipitate was measured for radioactivity to determine the recovery of radioactivity into the supernatant that had been injected onto HPLC.
For Whole Blood. […] The sample was mixed well and incubated at 37 °C for one hour. Water (300 µL) was added to lyse open all cells. An aliquot (450 µL) was then removed to a new vial, and acetonitrile (720 µL) was added. The mixture was mixed well, measured for radioactivity, and centrifuged at 10,000 g for one minute. The supernatant was analyzed via HPLC as described for brain.
For Plasma. Plasma was separated from blood cells. […] The mixture was measured for radioactivity. An aliquot (450 µL) was then placed in acetonitrile (720 µL) along with carrier NR2B-Me (5 µg) and mixed well. Water (100 µL) was then added, mixed well, measured for radioactivity, and centrifuged at 10,000 g for one minute. The supernatant was analyzed with HPLC as described for brain. The precipitate was measured for radioactivity to determine radioactivity recovery into the supernatant that had been injected onto HPLC.
(§6) The SUV due to radioligand or radiometabolite only was calculated by multiplying the total SUV of the tissue by the fraction of the radioligand or radiometabolite measured with HPLC (Supplementary Table S4).

How the values of series [7] were obtained: Rats were anesthetized with 1.5% isoflurane in oxygen. […] The rats were then immediately sacrificed by decapitation, and their brains and myocardial tissues were excised.
Plasma was separated from blood cells, and a sample (50 µL) was measured for radioactivity. An aliquot (450 µL) was placed in acetonitrile (720 µL) along with carrier NR2B-Me (5 µg) and mixed well. Water (100 µL) was added, mixed well, measured for radioactivity, and centrifuged at 10,000 g for one minute. The supernatant was analyzed with radio-HPLC and the precipitate measured for radioactivity, as described for brain.
as §6
This is another data set of the same source.

Series [8] is described as follows: Radiochemical stability of formulated radioligand. Format: physicochemical. The text has this: However, the fraction collected from HPLC contains 0.1% TFA. […] Protection with ascorbic acid was therefore used immediately after HPLC radioligand purification to maintain weakly acidic and reducing conditions.
The target in series [9] is T3, GluN2B receptors. The series can be described thus: PET displacement / pre-blocking of ^11C-NR2B-Me radioligands with Ro-25-6981, Lassen plots. Format: in vivo. As to conditions: rat; Ro-25-6981 0.25 mg/kg i.v. 10 min before radioligand. Here is the method: as §4, §5
For series [10] the following is noted: n = 3. Here is the method:
Human Plasma Free Fraction. Plasma free fraction (fp) was measured as described previously (6). […] If necessary, samples were left to decay to within the optimal radioactivity range for accurate γ-counter measurement.

For series [11] the following is noted: room temperature, at least 30 min. The text has this: Subsequent processing and analysis were as described for rat ex vivo experiments in the main text.
[12] abbreviates: rat, ex vivo 30 min after intravenous injection.

T3 sequence (Q00960 27-1482, other chains not shown): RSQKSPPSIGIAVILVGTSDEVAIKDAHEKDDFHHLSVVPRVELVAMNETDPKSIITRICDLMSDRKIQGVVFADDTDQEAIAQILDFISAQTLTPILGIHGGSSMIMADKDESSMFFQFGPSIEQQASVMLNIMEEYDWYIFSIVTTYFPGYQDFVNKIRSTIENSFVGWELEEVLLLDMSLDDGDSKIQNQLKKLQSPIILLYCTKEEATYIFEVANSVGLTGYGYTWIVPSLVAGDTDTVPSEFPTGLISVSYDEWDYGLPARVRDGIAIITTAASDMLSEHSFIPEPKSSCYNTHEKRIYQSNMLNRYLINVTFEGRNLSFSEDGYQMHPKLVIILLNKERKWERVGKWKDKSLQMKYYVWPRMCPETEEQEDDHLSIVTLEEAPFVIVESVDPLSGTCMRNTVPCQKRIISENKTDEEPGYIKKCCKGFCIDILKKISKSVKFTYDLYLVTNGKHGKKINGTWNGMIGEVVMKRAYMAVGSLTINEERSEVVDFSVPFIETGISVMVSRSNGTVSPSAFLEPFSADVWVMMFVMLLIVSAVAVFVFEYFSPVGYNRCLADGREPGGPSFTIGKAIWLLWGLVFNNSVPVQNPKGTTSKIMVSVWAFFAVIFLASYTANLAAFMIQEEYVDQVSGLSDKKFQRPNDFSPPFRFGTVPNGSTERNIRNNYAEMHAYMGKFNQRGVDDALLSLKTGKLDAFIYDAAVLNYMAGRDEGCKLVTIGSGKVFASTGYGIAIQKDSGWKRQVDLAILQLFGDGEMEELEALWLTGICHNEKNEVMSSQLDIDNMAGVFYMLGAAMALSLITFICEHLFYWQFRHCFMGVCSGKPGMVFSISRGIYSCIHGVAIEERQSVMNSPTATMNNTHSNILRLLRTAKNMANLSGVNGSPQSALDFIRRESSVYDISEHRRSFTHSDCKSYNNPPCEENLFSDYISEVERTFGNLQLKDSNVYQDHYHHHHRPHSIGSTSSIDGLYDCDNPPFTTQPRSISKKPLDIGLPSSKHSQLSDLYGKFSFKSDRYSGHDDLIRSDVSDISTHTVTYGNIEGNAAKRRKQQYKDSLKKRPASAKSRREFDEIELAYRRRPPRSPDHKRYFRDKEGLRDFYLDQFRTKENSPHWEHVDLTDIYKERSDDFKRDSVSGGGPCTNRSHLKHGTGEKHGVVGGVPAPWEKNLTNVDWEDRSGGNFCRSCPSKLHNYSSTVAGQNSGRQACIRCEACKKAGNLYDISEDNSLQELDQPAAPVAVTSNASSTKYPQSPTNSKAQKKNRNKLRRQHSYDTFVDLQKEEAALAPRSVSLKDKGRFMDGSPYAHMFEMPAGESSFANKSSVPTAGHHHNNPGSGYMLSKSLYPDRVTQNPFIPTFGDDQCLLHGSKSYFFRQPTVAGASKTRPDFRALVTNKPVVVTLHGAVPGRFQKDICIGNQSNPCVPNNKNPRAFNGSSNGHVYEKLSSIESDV
T1 sequence (Q13224 27-1484, species assumed, other chains not shown): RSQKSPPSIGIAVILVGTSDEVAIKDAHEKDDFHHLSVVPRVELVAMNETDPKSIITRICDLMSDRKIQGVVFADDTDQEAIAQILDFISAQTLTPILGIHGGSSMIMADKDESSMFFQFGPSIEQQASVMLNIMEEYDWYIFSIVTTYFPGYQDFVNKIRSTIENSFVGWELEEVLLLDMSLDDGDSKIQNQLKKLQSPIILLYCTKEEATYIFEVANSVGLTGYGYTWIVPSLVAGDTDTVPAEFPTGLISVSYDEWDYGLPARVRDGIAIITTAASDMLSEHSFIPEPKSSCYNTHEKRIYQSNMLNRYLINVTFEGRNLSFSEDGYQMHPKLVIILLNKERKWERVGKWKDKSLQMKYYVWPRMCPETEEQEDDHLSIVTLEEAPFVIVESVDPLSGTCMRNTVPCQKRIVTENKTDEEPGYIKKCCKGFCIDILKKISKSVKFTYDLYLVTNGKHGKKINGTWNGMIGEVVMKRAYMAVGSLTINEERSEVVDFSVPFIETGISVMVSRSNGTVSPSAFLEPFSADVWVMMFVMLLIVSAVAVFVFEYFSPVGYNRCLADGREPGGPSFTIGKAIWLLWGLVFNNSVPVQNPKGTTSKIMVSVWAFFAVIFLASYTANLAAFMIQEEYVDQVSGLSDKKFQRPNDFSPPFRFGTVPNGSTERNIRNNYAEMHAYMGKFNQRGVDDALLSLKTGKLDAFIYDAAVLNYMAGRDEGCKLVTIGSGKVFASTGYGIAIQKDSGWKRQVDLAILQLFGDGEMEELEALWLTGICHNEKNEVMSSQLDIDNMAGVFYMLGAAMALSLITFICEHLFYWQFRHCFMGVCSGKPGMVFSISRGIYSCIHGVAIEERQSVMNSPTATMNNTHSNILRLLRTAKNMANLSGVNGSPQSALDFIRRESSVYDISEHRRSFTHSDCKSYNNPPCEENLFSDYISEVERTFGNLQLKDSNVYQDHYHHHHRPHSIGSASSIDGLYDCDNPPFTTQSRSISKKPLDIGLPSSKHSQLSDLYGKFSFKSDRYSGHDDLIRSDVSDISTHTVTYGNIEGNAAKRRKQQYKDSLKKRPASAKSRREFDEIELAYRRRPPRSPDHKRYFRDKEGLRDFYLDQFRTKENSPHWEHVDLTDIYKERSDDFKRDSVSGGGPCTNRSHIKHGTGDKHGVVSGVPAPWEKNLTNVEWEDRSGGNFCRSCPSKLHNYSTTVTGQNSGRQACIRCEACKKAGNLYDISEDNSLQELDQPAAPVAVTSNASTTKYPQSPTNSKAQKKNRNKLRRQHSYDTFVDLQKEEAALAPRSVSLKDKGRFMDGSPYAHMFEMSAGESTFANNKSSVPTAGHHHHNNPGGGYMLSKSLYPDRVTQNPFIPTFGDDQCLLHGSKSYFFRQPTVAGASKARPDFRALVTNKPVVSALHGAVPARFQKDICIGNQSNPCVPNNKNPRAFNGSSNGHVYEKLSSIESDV
guinea pig σ1 receptor, sequence (Q60492 whole entry): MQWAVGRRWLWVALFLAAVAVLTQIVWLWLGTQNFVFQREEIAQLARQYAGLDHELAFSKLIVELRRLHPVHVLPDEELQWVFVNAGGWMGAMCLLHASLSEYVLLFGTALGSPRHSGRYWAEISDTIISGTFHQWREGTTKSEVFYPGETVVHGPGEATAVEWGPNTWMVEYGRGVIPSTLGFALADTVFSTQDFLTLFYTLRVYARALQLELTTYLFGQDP
hERG channel, sequence (Q12809 whole entry): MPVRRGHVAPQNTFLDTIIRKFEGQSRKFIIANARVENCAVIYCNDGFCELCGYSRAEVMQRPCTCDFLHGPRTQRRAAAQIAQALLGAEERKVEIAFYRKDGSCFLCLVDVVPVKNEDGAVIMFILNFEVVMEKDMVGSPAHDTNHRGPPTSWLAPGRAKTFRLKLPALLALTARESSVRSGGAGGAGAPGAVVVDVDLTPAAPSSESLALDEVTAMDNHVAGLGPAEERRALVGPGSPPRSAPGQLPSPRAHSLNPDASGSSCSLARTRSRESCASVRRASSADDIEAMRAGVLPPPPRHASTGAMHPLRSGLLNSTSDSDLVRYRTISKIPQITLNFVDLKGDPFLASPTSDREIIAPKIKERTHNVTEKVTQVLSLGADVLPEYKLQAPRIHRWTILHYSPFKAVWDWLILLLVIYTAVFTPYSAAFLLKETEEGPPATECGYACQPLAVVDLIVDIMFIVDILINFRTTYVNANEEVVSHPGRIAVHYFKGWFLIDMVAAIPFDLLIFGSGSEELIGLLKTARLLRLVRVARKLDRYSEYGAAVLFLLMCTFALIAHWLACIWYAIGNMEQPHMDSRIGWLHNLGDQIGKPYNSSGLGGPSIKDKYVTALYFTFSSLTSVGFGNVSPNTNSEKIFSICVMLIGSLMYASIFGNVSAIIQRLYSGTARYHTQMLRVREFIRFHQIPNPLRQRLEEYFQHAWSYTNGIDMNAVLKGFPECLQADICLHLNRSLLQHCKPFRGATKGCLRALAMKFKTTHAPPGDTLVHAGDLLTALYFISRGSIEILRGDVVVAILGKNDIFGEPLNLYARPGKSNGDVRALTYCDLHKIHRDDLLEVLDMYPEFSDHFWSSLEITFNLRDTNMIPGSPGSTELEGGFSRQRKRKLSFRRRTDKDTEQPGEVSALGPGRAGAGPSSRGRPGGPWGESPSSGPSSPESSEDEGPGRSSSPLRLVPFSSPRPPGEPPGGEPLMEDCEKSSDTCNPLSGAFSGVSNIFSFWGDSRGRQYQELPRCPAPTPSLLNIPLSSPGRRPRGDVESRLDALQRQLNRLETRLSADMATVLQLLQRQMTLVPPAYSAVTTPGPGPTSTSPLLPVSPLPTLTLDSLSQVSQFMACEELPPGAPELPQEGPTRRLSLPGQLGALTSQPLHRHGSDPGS

In the case of `C[C@@H](CN1CCC(Cc2ccccc2)CC1)[C@@H](O)c1ccc(O)cc1` [Ro-25-6981], the Ki – broadly, the equilibrium dissociation constant of an inhibitor or competing ligand from its target – at GluN2B was 9 nM.
For the molecule `COc1ccc2c(c1)CCN(CCCCc1ccc(C)cc1)CC2O` (stereo not shown) [NR2B-Me, 7-methoxy-3-(4-(p-tolyl)butyl)-2,3,4,5-tetrahydro-1H-benzo[d]azepin-1-ol], the “inhibition of reference radioligand binding, numerous other binding sites and receptors” value in series [1] is reported as “only weakly inhibited”. Moreover, the logD in series [2] (1-octanol/sodium phosphate buffer, pH 7.4, Table 1, text gives this value as measured logD7.4, read-out: cLogD7.4) stood at 3.27. For the same molecule, the pKa (commonly the pH at which an ionisable group is half protonated) in series [3] (cyclohexane/sodium phosphate buffer, read-out: pKa (apparent)) was 5.04. Further, the inhibition (commonly how much of the control response was suppressed) at 10 µM on PC12 cell σ2 receptors is 90.7%; on hERG channel it was 61.7%; at guinea pig σ1 receptor it was 89.7%. The same molecule gave a σ2 inhibition on PC12 cell σ2 receptors (10 µM) of 91%. The “inhibition of reference radioligand binding, calcium channel” value with calcium channel is reported as 39.6%.
Regarding `Cc1ccc(CC2(O)CCN(CCOc3ccc(O)cc3)CC2)cc1` [CO101,244], on GluN2B receptors [4], the “ED50 in rat whole brain in vivo ^11C-(S)-NR2B-SMe” value is 74 nmol/kg. The ED50 (commonly the dose that gives a 50% effect, or the effect in half of the subjects) at GluN2B receptors [5] stood at 0.041 µmol/kg. Besides, the Ki on GluN2B was 43 nM.
For `COc1ccc2c(c1)CCN(CCCCc1ccc([11CH3])cc1)CC2O` (racemic) [^11C-NR2B-Me], the “conversion into radiometabolite in brain homogenate” value in series [6] (rat brain homogenate) was “less than 0.5%”. In series [6] (rat plasma, 37 °C, 30 min), the “In vitro stability, plasma” value is listed as 70.3% and the “single less lipophilic radiometabolite detected in rat plasma in vitro” value is “about 30%”. Besides, the “Ex vivo stability, brain (unchanged radioligand as % of radioactivity)” value in series [7] (rat brain, 30 min after intravenous injection) was 99.5% and > 99%. In addition, the “Ex vivo stability, plasma (unchanged radioligand as % of radioactivity)” value in series [7] (rat plasma, 30 min after intravenous injection) stood at 46.2%. Further, in series [7] (setting [12]), the “Radioactivity conc., brain” value turned out to be 4.1 SUV; the “Radioactivity conc., plasma” value is listed as 0.04 SUV; the “Radioactivity conc., whole blood” value was determined as 0.300 SUV; the “Tissue to plasma radioactivity ratio, brain” value is recorded as 103. In [7] (setting [12]), the “Tissue to plasma radioactivity ratio, plasma” value turned out to be 1.0 and the “Tissue to plasma radioactivity ratio, whole blood” value worked out at 7.5. This molecule also gave a logD7.4 in series [2] (1-octanol / sodium phosphate buffer pH 7.4, room temperature) of 3.27. Besides, the “pKa (apparent)” value in [3] was 5.04 ± 0.01. Also, the “time stable in PBS (10 mM)” value in [8] was “at least 2.5 hours”. Moreover, the “radioligand remaining in solution (no adsorption to glass test tubes)” value in series [8] (PBS 10 mM) is on record as 98.1 ± 0.5%. Moreover, the “radioactivity in brain regions at 90 min as % of peak values after pre-block” value at GluN2B receptors [9] was “about 10%”. For the same molecule, in series [10], the “human plasma free fraction (fp)” value was 1.16% ± 0.14. Further, in series [11], the “stability in human brain homogenate” value is 99.5% and the “stability in human plasma” value is 100%.
